# Where two headings read alike, the source gives them in different places.
# How the values were obtained:
# [1] = Solubility in solvents; assay type: physicochemical
# [2] = Single ascending-dose (SAD) study, plasma pharmacokinetics; assay type: in vivo, human; conditions: for Cmax / AUC(0-t) / k el / AUC(0-inf) / MRT / Vd/F / half-life / Tmax: both sexes, human
# Description: The study comprised a total of 7 dose groups (2.5, 5, 10, 20, 40, 60, and 80 mg groups, respectively). The first dose group (2.5 mg) consisted of 8 subjects, with 6 receiving HEC113995PA·H2O and 2 receiving placebo. Dose groups 2–7 each included 10 subjects, with 8 subjects receiving HEC113995PA·H2O and 2 subjects receiving placebo. Male and female participants were randomly assigned to the groups. Serial blood samples were collected before and after drug administration to determine the plasma concentration of pharmacokinetics (PK) and to evaluate the pharmacokinetic characteristics. The time points of blood collection and safety evaluation of PK in the second to seventh dose groups were adjusted based on the results of the first dose group. Drug safety and tolerability were evaluated on day 2 and 4 in the first dose group and on day 4 and 7 in the second to seventh dose groups. The trial was conducted in a dose-escalation manner, with progression to the next dose arm only after the safety of the previous arm had been evaluated. In the fourth group (20 mg group), in addition to blood samples, urine and stool samples were also collected for in vivo drug metabolic transformation studies.
# In the first dose group of single ascending-dose study, PK blood samples were collected at 0.5 h before administration and 0.5, 1, 1.5, 2, 2.5, 3, 4, 5, 6, 8, 10, 12, 24, 36, 48, and 72 h after administration. In other SAD groups, MAD groups and food effect study, PK blood samples were collected at 0.5 h before administration, and 1, 2, 3, 4, 5, 6, 7, 8, 10, 12, 24, 48, 72, 96, 120 and 144 h after administration. Approximately 4 mL of venous blood was obtained from each collection and placed in a vacuum collection vessel containing K2EDTA anticoagulant. The blood was centrifuged and packed according to the instruction provided by the Biological Sample Detection and Analysis Unit. Briefly, all samples were centrifuged at 4°C, 1,500 g for 10 min within 0.5 h after blood collection. After centrifugation, the plasma was aliquoted into two cryogenic storage tubes. The first tube (Tube A) contained at least 0.8 mL of plasma for analytical testing, and the remaining plasma is allocated into the backup tube (Tube B). The plasma samples were stored at −80°C within 1 h after aliquoting for further analysis.
# The concentration of HEC113995PA·H2O in human plasma samples (K2EDTA) was quantitatively analyzed using the LC-MS/MS method. Plasma samples (50 μL) were processed using protein precipitation with 5 μL deuterated internal standard (HEC124659) and 100 μL acetonitrile. The Shimadzu LCMS-8060 system coupled with a GL Sciences Inc. InertSustain AQ-C18 HP column (50 × 2.1 mm, 3 μm) achieved chromatographic separation through gradient elution using 0.04% TFA aqueous solution (pH 2.1) and acetonitrile at 0.4 mL/min. ESI-positive mode detection employed optimized parameters: 300°C interface temperature, 250°C DL temperature, 3 L/min nebulizer gas, and 400°C heating block temperature.
# Using WinNonlin 7.0 for non-compartmental analysis (NCA), pharmacokinetic (PK) parameters were meticulously calculated based on the actual sampling times for plasma, urine, and fecal samples from each subject post-administration. These parameters encompassed a comprehensive range, including the area under the concentration–time curve (AUC), AUC from time zero (pre-dose) to the time of the last measurable concentration (AUC0-t), and AUC from time zero (pre-dose) to infinity (AUC0-∞). Additionally, maximum observed plasma concentration (Cmax), time to achieve maximum plasma concentration (Tmax), terminal elimination half-life (t1/2), elimination rate constant (Ke), apparent volume of distribution (Vd/F), clearance rate (CL/F), and mean residence time (MRT) were also determined. The AUC0-t and AUC0-∞ values were computed using the linear trapezoidal rule method. Tmax and Cmax were ascertained based on the actual observed data. […]
# [3] = across single-dose groups 2.5–80 mg
compound,measurement,setting,value
Cc1nc(-c2cnc(N3CCN(CCCc4c[nH]c5ccc(C#N)cc45)CC3)nc2)sc1C(N)=O [HEC113995PA·H2O],solubility,[1]; 95% ethanol,practically insoluble
same,solubility,"[1]; N,N-dimethylacetamide (DMA)",soluble
same,solubility,[1]; acetone,practically insoluble
same,solubility,[1]; acetonitrile,practically insoluble
same,solubility,[1]; dichloromethane,practically insoluble
same,solubility,[1]; dimethyl sulfoxide (DMSO),readily soluble
same,solubility,[1]; methanol,practically insoluble
same,solubility,[1]; water,practically insoluble
same,Cl/F,"[2]; SAD single dose 2.5 mg, N = 6, mean (SD)",12.03 (3.52) L/h
same,Cl/F,"[2]; SAD single dose 5 mg, N = 8, mean (SD)",10.94 (1.75) L/h
same,Cl/F,"[2]; SAD single dose 10 mg, N = 8, mean (SD)",12.65 (3.13) L/h
same,Cl/F,"[2]; SAD single dose 20 mg, N = 8, mean (SD)",14.53 (5.78) L/h
same,Cl/F,"[2]; SAD single dose 40 mg, N = 8, mean (SD)",14.14 (4.06) L/h
same,Cl/F,"[2]; SAD single dose 60 mg, N = 8, mean (SD)",15.07 (4.58) L/h
same,Cl/F,"[2]; SAD single dose 80 mg, N = 8, mean (SD)",14 (2.41) L/h
same,"apparent clearance (CL/F), range of arithmetic means",[2]; [3],10.9380 to 15.0736 L/h
same,"elimination rate constant (Kel), range of arithmetic means",[2]; [3],0.0187 to 0.0256 h⁻¹
same,Cmax,"[2]; oral, SAD single dose 2.5 mg, N = 6, plasma, mean (SD), read-out: Cmax",5.27 ng/mL
same,Cmax,"[2]; oral, SAD single dose 5 mg, N = 8, plasma, mean (SD), read-out: Cmax",14 ng/mL
same,Cmax,"[2]; oral, SAD single dose 10 mg, N = 8, plasma, mean (SD), read-out: Cmax",24.4 ng/mL
same,Cmax,"[2]; oral, SAD single dose 20 mg, N = 8, plasma, mean (SD), read-out: Cmax",40.6 ng/mL
same,Cmax,"[2]; oral, SAD single dose 40 mg, N = 8, plasma, mean (SD), read-out: Cmax",88.5 ng/mL
same,Cmax,"[2]; oral, SAD single dose 60 mg, N = 8, plasma, mean (SD), read-out: Cmax",149 ng/mL
same,Cmax,"[2]; oral, SAD single dose 80 mg, N = 8, plasma, mean (SD), read-out: Cmax",164 ng/mL
same,AUC(0-t),"[2]; plasma, oral, 2.5 mg, SAD single dose 2.5 mg, N = 6, mean (SD), read-out: AUC0-t",177 ng·h/mL
same,AUC(0-t),"[2]; plasma, oral, 5 mg, SAD single dose 5 mg, N = 8, mean (SD), read-out: AUC0-t",439 ng·h/mL
same,AUC(0-t),"[2]; plasma, oral, 10 mg, SAD single dose 10 mg, N = 8, mean (SD), read-out: AUC0-t",801 ng·h/mL
same,AUC(0-t),"[2]; plasma, oral, 20 mg, SAD single dose 20 mg, N = 8, mean (SD), read-out: AUC0-t",1450 ng·h/mL
same,AUC(0-t),"[2]; plasma, oral, 40 mg, SAD single dose 40 mg, N = 8, mean (SD), read-out: AUC0-t",2910 ng·h/mL
same,AUC(0-t),"[2]; plasma, oral, 60 mg, SAD single dose 60 mg, N = 8, mean (SD), read-out: AUC0-t",4100 ng·h/mL
same,AUC(0-t),"[2]; plasma, oral, 80 mg, SAD single dose 80 mg, N = 8, mean (SD), read-out: AUC0-t",5650 ng·h/mL
same,k el,"[2]; plasma, oral, SAD single dose 2.5 mg, N = 6, mean (SD)",6.39e-06 s⁻¹
same,AUC(0-inf),"[2]; plasma, oral, SAD single dose 2.5 mg, N = 6, mean (SD), read-out: AUC0-∞",220 ng·h/mL
same,MRT,"[2]; plasma, oral, SAD single dose 2.5 mg, N = 6, mean (SD), read-out: MRT",44.8 h
same,Vd/F,"[2]; plasma, oral, SAD single dose 2.5 mg, N = 6, mean (SD), read-out: Vz/F",518 L
same,half-life,"[2]; plasma, oral, SAD single dose 2.5 mg, N = 6, mean (SD), read-out: t1/2 (converted)",30.3 h
same,Tmax,"[2]; plasma, oral, SAD single dose 2.5 mg, N = 6, median (min, max), read-out: Tmax",6 h
same,k el,"[2]; plasma, oral, SAD single dose 5 mg, N = 8, mean (SD)",7.11e-06 s⁻¹
same,AUC(0-inf),"[2]; plasma, oral, SAD single dose 5 mg, N = 8, mean (SD), read-out: AUC0-∞",467 ng·h/mL
same,MRT,"[2]; plasma, oral, SAD single dose 5 mg, N = 8, mean (SD), read-out: MRT",39.8 h
same,Vd/F,"[2]; plasma, oral, SAD single dose 5 mg, N = 8, mean (SD), read-out: Vz/F",430 L
same,half-life,"[2]; plasma, oral, SAD single dose 5 mg, N = 8, mean (SD), read-out: t1/2 (converted)",27.2 h
same,Tmax,"[2]; plasma, oral, SAD single dose 5 mg, N = 8, median (min, max), read-out: Tmax",5 h
same,k el,"[2]; plasma, oral, SAD single dose 10 mg, N = 8, mean (SD)",7.11e-06 s⁻¹
same,AUC(0-inf),"[2]; plasma, oral, SAD single dose 10 mg, N = 8, mean (SD), read-out: AUC0-∞",832 ng·h/mL
same,MRT,"[2]; plasma, oral, SAD single dose 10 mg, N = 8, mean (SD), read-out: MRT",39.1 h
same,Vd/F,"[2]; plasma, oral, SAD single dose 10 mg, N = 8, mean (SD), read-out: Vz/F",494 L
same,half-life,"[2]; plasma, oral, SAD single dose 10 mg, N = 8, mean (SD), read-out: t1/2 (converted)",28 h
same,Tmax,"[2]; plasma, oral, SAD single dose 10 mg, N = 8, median (min, max), read-out: Tmax",6 h
same,k el,"[2]; plasma, oral, SAD single dose 20 mg, N = 8, mean (SD)",5.19e-06 s⁻¹
same,AUC(0-inf),"[2]; plasma, oral, SAD single dose 20 mg, N = 8, mean (SD), read-out: AUC0-∞",1520 ng·h/mL
same,MRT,"[2]; plasma, oral, SAD single dose 20 mg, N = 8, mean (SD), read-out: MRT",42.2 h
same,Vd/F,"[2]; plasma, oral, SAD single dose 20 mg, N = 8, mean (SD), read-out: Vz/F",772 L
same,half-life,"[2]; plasma, oral, SAD single dose 20 mg, N = 8, mean (SD), read-out: t1/2 (converted)",38.6 h
same,Tmax,"[2]; plasma, oral, SAD single dose 20 mg, N = 8, median (min, max), read-out: Tmax",8 h
same,k el,"[2]; plasma, oral, SAD single dose 40 mg, N = 8, mean (SD)",6.08e-06 s⁻¹
same,AUC(0-inf),"[2]; plasma, oral, SAD single dose 40 mg, N = 8, mean (SD), read-out: AUC0-∞",3010 ng·h/mL
same,MRT,"[2]; plasma, oral, SAD single dose 40 mg, N = 8, mean (SD), read-out: MRT",38.1 h
same,Vd/F,"[2]; plasma, oral, SAD single dose 40 mg, N = 8, mean (SD), read-out: Vz/F",661 L
same,half-life,"[2]; plasma, oral, SAD single dose 40 mg, N = 8, mean (SD), read-out: t1/2 (converted)",32.2 h
same,Tmax,"[2]; plasma, oral, SAD single dose 40 mg, N = 8, median (min, max), read-out: Tmax",5 h
same,k el,"[2]; plasma, oral, SAD single dose 60 mg, N = 8, mean (SD)",6.11e-06 s⁻¹
same,AUC(0-inf),"[2]; plasma, oral, SAD single dose 60 mg, N = 8, mean (SD), read-out: AUC0-∞",4240 ng·h/mL
same,MRT,"[2]; plasma, oral, SAD single dose 60 mg, N = 8, mean (SD), read-out: MRT",35.3 h
same,Vd/F,"[2]; plasma, oral, SAD single dose 60 mg, N = 8, mean (SD), read-out: Vz/F",762 L
same,half-life,"[2]; plasma, oral, SAD single dose 60 mg, N = 8, mean (SD), read-out: t1/2 (converted)",36.6 h
same,Tmax,"[2]; plasma, oral, SAD single dose 60 mg, N = 8, median (min, max), read-out: Tmax",5.5 h
same,k el,"[2]; plasma, oral, SAD single dose 80 mg, N = 8, mean (SD)",6.08e-06 s⁻¹
same,AUC(0-inf),"[2]; plasma, oral, SAD single dose 80 mg, N = 8, mean (SD), read-out: AUC0-∞",5870 ng·h/mL
same,MRT,"[2]; plasma, oral, SAD single dose 80 mg, N = 8, mean (SD), read-out: MRT",40.5 h
same,Vd/F,"[2]; plasma, oral, SAD single dose 80 mg, N = 8, mean (SD), read-out: Vz/F",666 L
same,half-life,"[2]; plasma, oral, SAD single dose 80 mg, N = 8, mean (SD), read-out: t1/2 (converted)",33.4 h
same,Tmax,"[2]; plasma, oral, SAD single dose 80 mg, N = 8, median (min, max), read-out: Tmax",6 h
same,AUC(0-t),"[2]; plasma, oral, across single-dose groups 2.5–80 mg, read-out: AUC0-t, geometric mean range",172 to 5580 ng·h/mL
same,AUC(0-inf),"[2]; plasma, oral, across single-dose groups 2.5–80 mg, read-out: AUC0-∞, geometric mean range",214 to 5790 ng·h/mL
same,AUC(0-t),"[2]; plasma, oral, across single-dose groups 2.5–80 mg, read-out: AUC0–24h, geometric mean range",88.4 to 2680 ng·h/mL
same,Cmax,"[2]; plasma, oral, across single-dose groups 2.5–80 mg, read-out: Cmax, geometric mean range",5.1 to 157 ng/mL
same,Vd/F,"[2]; plasma, oral, across single-dose groups 2.5–80 mg, read-out: apparent volume of distribution (Vz/F), range of arithmetic means",430 to 772 L
same,half-life,"[2]; plasma, oral, across single-dose groups 2.5–80 mg, read-out: half-life (t1/2), range of arithmetic means",27.2 to 38.6 h
same,MRT,"[2]; plasma, oral, across single-dose groups 2.5–80 mg, read-out: mean residence time (MRT), range of arithmetic means",35.3 to 44.8 h
same,Tmax,"[2]; plasma, oral, across single-dose groups 2.5–80 mg, read-out: median time to peak plasma concentration (Tmax), range",5 to 8 h
same,AUC(0-inf),"[2]; plasma, po, SAD single dose 20 mg, N = 8, mean (SD), read-out: AUC0-∞",1520 ng·h/mL
same,Cmax higher than Vilazodone,[2]; equivalent 20 mg doses (40.6 vs. 28.5 ng/mL),42%
same,AUC0-∞ greater than Vilazodone,"[2]; equivalent 20 mg doses (1,519.6 vs. 502 h ng/mL)",threefold greater

# Reference: PMC11979273, “A phase I study to evaluate the safety, tolerability, and pharmacokinetics of HEC113995PA·H2O, a novel dual-acting serotonergic antidepressant, in healthy subjects” (Frontiers in Pharmacology, 2025)
